Some results are limits rather than exact numbers.

Assay [1] concerns the target VHR (Homo sapiens, UniProt P51452). In words: PTP activity assay with pNPP as substrate: VHR. It counts as biochemical. Particulars: pNPP as substrate at Km, pH 7.0, 25° C., I = 0.15 M.
Experimental: (§1) The PTP activity was assayed using pNPP as a substrate at 25° C. in 50 mM 3,3-dimethylglutarate buffer, pH 7.0, containing 1 mM EDTA with an ionic strength of 0.15 M adjusted by NaCl. TTM, TTN and the engineered analogs were analyzed for inhibition of a panel of PTPs at 10 μM compound concentration. For each enzyme screened, test compounds were diluted to 20 μM in 100 μL and combined with 50 μL pNPP at a concentration of 4×Km. The reaction was initiated by the addition of 50 μL of 4× concentrated enzyme and pNPP was allowed to convert to the product p-nitrophenol. The reaction was quenched by the addition of 50 μL of 5N NaOH. Nonenzymatic hydrolysis of pNPP was corrected by measuring the control without the addition of enzyme. Production of p-nitrophenol was monitored by a Spectra MAX385 microplate spectrophotometer (Molecular Devices) at 405 nm using a molar extinction coefficient of 18,000 M^−1 cm^−1. IC50 values were calculated by fitting the absorbance at 405 nm versus inhibitor concentration to the following equation: AI/A0=IC50/(IC50+[I]) where AI is the absorbance at 405 nm of the sample in the presence of inhibitor; Ao is the absorbance at 405 nm in the absence of inhibitor; and [I] is the concentration of the inhibitor.
Assay [2] relates to PP1. Particulars: cited from earlier work.
The target in assay [3] is T1, Cdc14A (Homo sapiens, UniProt Q9UNH5).
T1 sequence (Q9UNH5 1-594): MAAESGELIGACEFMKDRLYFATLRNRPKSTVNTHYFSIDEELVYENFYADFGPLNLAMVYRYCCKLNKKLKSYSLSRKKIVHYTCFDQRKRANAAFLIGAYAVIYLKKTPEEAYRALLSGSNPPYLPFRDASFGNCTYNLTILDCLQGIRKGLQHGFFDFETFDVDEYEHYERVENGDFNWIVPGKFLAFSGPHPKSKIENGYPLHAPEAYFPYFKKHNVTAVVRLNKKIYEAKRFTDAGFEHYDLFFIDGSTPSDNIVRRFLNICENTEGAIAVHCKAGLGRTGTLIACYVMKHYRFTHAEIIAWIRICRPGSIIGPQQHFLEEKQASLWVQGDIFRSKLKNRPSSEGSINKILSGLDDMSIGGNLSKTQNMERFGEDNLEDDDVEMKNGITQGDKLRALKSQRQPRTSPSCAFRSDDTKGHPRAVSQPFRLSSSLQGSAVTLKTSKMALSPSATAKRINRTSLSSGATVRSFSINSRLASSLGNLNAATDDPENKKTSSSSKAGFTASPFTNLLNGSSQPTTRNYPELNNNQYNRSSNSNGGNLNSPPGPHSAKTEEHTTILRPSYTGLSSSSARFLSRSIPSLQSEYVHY
The experiment in a line: PTP activity assay with pNPP as substrate: Cdc14A. As to conditions: pNPP as substrate at Km, pH 7.0, 25° C., I = 0.15 M. The assay is classed as biochemical.
Experimental: as §1

The test system of assay [4] is T cell proliferation. Particulars: relative to cyclosporine A (CsA); cited from earlier work.
The target of assay [5] is T2, CD45 (Homo sapiens, UniProt P08575).
T2 sequence (P08575 26-1306): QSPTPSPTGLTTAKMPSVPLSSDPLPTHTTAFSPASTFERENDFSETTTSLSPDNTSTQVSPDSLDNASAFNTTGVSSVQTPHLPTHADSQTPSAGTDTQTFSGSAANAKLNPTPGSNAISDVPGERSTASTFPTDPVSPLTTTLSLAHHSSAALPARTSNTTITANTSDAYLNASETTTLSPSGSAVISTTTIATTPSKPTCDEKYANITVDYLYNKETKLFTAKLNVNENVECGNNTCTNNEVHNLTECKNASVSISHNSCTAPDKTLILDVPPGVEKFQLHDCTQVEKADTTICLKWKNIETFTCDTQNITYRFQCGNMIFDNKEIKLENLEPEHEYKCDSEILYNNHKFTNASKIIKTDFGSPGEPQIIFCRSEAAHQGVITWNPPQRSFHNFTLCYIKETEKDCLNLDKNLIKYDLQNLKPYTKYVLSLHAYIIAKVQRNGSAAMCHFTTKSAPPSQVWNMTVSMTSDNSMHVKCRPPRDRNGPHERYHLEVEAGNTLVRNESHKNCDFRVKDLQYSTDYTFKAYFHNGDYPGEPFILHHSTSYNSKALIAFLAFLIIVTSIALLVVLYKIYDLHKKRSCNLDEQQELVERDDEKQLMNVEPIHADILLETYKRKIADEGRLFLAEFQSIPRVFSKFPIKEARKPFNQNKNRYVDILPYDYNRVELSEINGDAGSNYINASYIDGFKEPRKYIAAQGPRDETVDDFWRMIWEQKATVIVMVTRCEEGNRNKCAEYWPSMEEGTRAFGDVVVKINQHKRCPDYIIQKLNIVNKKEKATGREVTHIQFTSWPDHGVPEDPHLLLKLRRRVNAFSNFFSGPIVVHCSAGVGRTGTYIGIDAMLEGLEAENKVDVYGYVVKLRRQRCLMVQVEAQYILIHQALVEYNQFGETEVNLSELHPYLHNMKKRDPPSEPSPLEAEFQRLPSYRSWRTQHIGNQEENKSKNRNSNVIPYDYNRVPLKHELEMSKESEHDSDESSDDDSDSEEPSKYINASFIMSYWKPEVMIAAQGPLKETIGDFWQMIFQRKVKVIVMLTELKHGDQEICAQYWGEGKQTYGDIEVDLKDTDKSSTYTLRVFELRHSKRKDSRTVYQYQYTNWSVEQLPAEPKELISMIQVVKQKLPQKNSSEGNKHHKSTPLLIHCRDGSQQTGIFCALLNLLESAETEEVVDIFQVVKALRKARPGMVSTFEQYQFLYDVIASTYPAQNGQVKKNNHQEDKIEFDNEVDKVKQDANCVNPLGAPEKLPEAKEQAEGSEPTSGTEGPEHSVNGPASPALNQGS
In words: PTP activity assay with pNPP as substrate: CD45. The assay is classed as biochemical. As to conditions: pNPP as substrate at Km, pH 7.0, 25° C., I = 0.15 M.
Experimental: as §1

Assay [6] addresses PTPα (Homo sapiens, UniProt P18433). In words: PTP activity assay with pNPP as substrate: PTPα. It counts as biochemical. Particulars: pNPP as substrate at Km, pH 7.0, 25° C., I = 0.15 M.
Experimental: as §1

VHR, sequence (P51452 whole entry, species assumed): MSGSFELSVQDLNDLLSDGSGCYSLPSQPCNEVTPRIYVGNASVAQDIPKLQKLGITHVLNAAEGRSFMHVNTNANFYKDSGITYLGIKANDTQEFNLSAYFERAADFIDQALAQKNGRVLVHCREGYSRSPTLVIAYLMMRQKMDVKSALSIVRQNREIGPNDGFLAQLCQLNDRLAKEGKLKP
PTPα, sequence (P18433 20-802): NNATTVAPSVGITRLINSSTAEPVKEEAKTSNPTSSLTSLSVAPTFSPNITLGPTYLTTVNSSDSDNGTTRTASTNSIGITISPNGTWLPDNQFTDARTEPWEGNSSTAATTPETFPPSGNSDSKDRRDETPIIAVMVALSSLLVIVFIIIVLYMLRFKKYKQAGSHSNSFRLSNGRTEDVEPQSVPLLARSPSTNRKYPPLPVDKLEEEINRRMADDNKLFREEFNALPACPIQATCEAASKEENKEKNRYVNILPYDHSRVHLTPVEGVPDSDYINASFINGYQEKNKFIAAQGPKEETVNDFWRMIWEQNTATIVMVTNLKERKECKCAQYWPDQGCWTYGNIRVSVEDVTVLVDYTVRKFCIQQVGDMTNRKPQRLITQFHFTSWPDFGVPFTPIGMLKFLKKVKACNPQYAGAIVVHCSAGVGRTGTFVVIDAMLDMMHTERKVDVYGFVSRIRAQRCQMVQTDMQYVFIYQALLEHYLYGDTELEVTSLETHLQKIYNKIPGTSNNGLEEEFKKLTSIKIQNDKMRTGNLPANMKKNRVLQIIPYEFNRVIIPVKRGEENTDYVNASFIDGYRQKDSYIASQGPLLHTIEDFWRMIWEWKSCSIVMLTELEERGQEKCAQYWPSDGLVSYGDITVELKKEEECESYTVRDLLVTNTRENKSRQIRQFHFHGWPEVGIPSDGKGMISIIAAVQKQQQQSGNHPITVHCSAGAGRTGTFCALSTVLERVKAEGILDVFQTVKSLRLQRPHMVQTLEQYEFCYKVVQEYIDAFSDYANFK

Regarding tautomycetin [TTN], the IC50 (commonly the midpoint of a concentration-inhibition curve) in assay [1] is more than 50 µM; in assay [2] (literature values), 0.0016 µM; in assay [3], more than 50 µM; in assay [5] it was more than 50 µM; in assay [6], more than 50 µM. Also, the “preferential inhibition of PP1 relative to PP2A” value in assay [2] (literature (Mitsuhashi et al., 2001)) was “about 40 fold”. In addition, in assay [4], the “concentration for inhibition of T cell proliferation, lower than that for maximal inhibition by cyclosporine A” value is given as 100 fold.

The values are drawn from patent US8637684B2, “Tautomycetin and tautomycetin analog biosynthesis” (Wisconsin Alumni Research Foundation, priority 2010, dated 2014).
